This note sets out measurements from publication PMC8264504, “Identification of Koumine as a Translocator Protein 18 kDa Positive Allosteric Modulator for the Treatment of Inflammatory and Neuropathic Pain” (Frontiers in Pharmacology, 2021).

Data set [1] relates to naïve and CCI sham-operated rats. The experiment in a line: MWT in naïve and CCI sham-operated rats. Format: in vivo, rat. The settings on record: for MWT: given alone. From the text: The rat CCI model of neuropathic pain was produced according to the method described by Bennett and Xie ([Bennett and Xie, 1988]). Adult male SD rats were anesthetized by isoflurane delivered by using the anesthetic machine. The right common sciatic nerve was isolated at the mid-thigh level and loosely ligated using four chromic gut (4–0) ties separated by intervals of 1 mm. For sham surgeries, the right sciatic nerve was exposed using the same procedure, but the nerve was not ligated. On the 9th day after surgery, Ro5-4864 or vehicle (5% DMSO) was administered i. p. 50 min before the measurement of mechanical allodynia, and koumine was administered s. c. 60 min before the measurement of mechanical allodynia. To determine whether koumine potentiated the analgesic effects of Ro5-4864, koumine (0.28 mg/kg, s. c.) or vehicle was injected 10 min before Ro5-4864 (0.0625–1.0 mg/kg, i. p.) injection on day 9 after CCI surgery, and the MWT was determined 50 min after the last injection. […] Mechanical allodynia was measured using the procedures described below. Only rats with mechanical withdrawal threshold scores (calculated by CCI ipsilateral paw mechanical withdrawal threshold/contralateral paw mechanical withdrawal threshold) on day 8 after CCI surgery >0.75 were used in the study.
Mechanical allodynia was measured using a commercially available electronic von Frey apparatus (Model 2,390; IITC Life Science Inc., Woodland Hills, CA) as described by Mitrirattanakul ([Mitrirattanakul et al., 2006]) with minor modifications. […] Stimulation was applied to the center of the hind paw in an upward motion of the von Frey filament until foot withdrawal occurred, and the withdrawal threshold was automatically recorded. […] The procedure was repeated three times at approximately 5 min intervals for each hind paw, and the MWT was calculated as the mean of the three latencies.
Figure S5 Modulation of the in vivo efficacy of Ro5-4864 by koumine in the naïve and CCI sham rat model. […] Koumine (0.28 mg/kg) was injected s.c. 9 days after CCI sham surgery, the MWT was determined 60 min after koumine injection. […]

Data set [2] relates to T98G human glioblastoma cells. The experiment in a line: Cell viability assay (CellTiter Blue). Format: cell-based. To be noted: same dosing regimen as proliferation, 48 h. The procedure:
T98G cells were plated and treated as in the proliferation assays. After 48 h of drug exposure, CellTiter Blue Reagent (Promega) was added to the cells and incubated for 4 h in 5% CO2 at 37°C. Absorption was measured at 570 nm using 600 nm as a reference wavelength.

Data set [3] concerns T98G human glioblastoma cells. The data set is described as follows: Cell proliferation assay (BrdU ELISA). Format: cell-based. The procedure: T98G cells were plated at 1 × 10^4 cells/well in 96-well plates. […] After 48 h of drug exposure, proliferation was indexed using a BrdU ELISA Kit (Roche Molecular Diagnostics) according to the manufacturer’s protocol, and absorption was measured at 370 nm (reference wavelength 492 nm).
A general note: Dividing cells build labelled thymidine or BrdU into new DNA.

Regarding `C=C[C@@]12CN(C)[C@H]3C[C@]14C(=Nc1ccccc14)[C@H]1C[C@@H]2[C@@H]3CO1` [koumine], in data set [1], the MWT result is “Neither Ro5-4864 nor koumine altered the MWT”. Also, the “modulation of antinociceptive effect of Ro5-4864 (MWT)” value in data set [1] (koumine 0.28 mg/kg s.c. before Ro5-4864 i.p.) is “could not significantly augment”. Also, the cell viability entry in data set [2] was “not significantly affected”. Moreover, in data set [3] (316.3 μM koumine), the “shift of PK11195 concentration-response curve” value is listed as “produced a leftward shift in the potency”. Further, the “shift of Ro5-4864 concentration-response curve” value in data set [3] (400 μM koumine) is listed as “produced a leftward shift in the potency”. Moreover, the cell proliferation entry in data set [3] (koumine on its own at 1–600 μM) is recorded as “did not affect”. For the same compound, the “modulation of inhibition of proliferation” value in data set [3] (koumine with an EC20 concentration of PK11195 (∼75 μM)) and in data set [3] (koumine with an EC20 concentration of Ro5-4864 (∼23 μM)) was “significantly increased the inhibition of proliferation” throughout.
Consider `CN1C(=O)CN=C(c2ccc(Cl)cc2)c2cc(Cl)ccc21` [Ro5-4864, reference compound], for which the MWT result in data set [1] is “Neither Ro5-4864 nor koumine altered the MWT”. For the same compound, in data set [2], the cell viability entry was “not significantly affected”. Besides, the “EC20 concentration, inhibition of cell proliferation” value in data set [3] (48 h, BrdU) was ~23 µM. For the same compound, in data set [3] (48 h, BrdU, read-out: EC50, inhibition of cell proliferation), the EC50 turned out to be 66 µM.
